Series [1] can be described thus: Solubility of the compound in Milli-Q water at 25 degC. It counts as physicochemical.
Series [2] can be described thus: Chemical stability of the compound in 5 mM sodium phosphate buffer containing 10% DMF at pH 7 assessed as half life by HPLC analysis. In kind it is physicochemical.
In series [3] the test system is A549. The series can be described thus: Cytotoxicity against human A549 cells after 48 hrs. The conditions noted are these: A549, 48 h. In kind it is functional, cell-based.
In series [4] the test system is DU-145. Kind of series: Cytotoxicity against human DU145 cells after 48 hrs. In kind it is functional, cell-based. The conditions noted are these: DU-145, 48 h.
Series [5] has as its system Nucleic Acid. The series can be described thus: Induction of 5'-Texas Red-labelled 208-bp DNA alkylation at 5'-AATACTCA-3' sequence at 25 to 200 nM after 18 hrs followed by quenching with calf thymus DNA by PAGE analysis. It counts as nucleic-acid assay.
In series [6] the test system is Nucleic Acid. Kind of series: Induction of 5'-Texas Red-labelled 208-bp DNA alkylation at 5'-ATTTGTCA-3' sequence at 25 to 200 nM after 18 hrs followed by quenching with calf thymus DNA by PAGE analysis. In kind it is nucleic-acid assay. To be noted: Homo sapiens.
Series [7] relates to Nucleic Acid. The series can be described thus: Induction of 5'-Texas Red-labelled 208-bp DNA alkylation at 5'-TCCATCCA-3' sequence at 25 to 200 nM after 18 hrs followed by quenching with calf thymus DNA by PAGE analysis. In kind it is nucleic-acid assay. The conditions noted are these: Homo sapiens.
In series [8] the test system is Nucleic Acid. Kind of series: Induction of 5'-Texas Red-labelled 208-bp DNA alkylation at 5'-TGCATCCA-3' sequence at 25 to 200 nM after 18 hrs followed by quenching with calf thymus DNA by PAGE analysis. In kind it is nucleic-acid assay.
Series [9] concerns Nucleic Acid. The series can be described thus: Induction of 5'-Texas Red-labelled 208-bp DNA alkylation at 5'-GTCATCCA-3' sequence at 25 to 200 nM after 18 hrs followed by quenching with calf thymus DNA by PAGE analysis. It counts as nucleic-acid assay.
Series [10] has as its system Nucleic Acid. Kind of series: Induction of 5'-Texas Red-labelled 208-bp DNA alkylation at 5'-ATTCACTA-3' sequence at 25 to 200 nM after 18 hrs followed by quenching with calf thymus DNA by PAGE analysis. In kind it is nucleic-acid assay. The conditions noted are these: Homo sapiens.

pIC50: −log10 of the molar value. In brackets after ≈: the same amount, converted by molar mass. Activity calls are given as the source filed them. The calls are words filed in the database; no cut-off is given here. Bounds are passed on as bounds.

In series [1], `CC(=O)Nc1cc(C(=O)Nc2cn(C)c(C(=O)NCCC(=O)Nc3cn(C)c(C(=O)Nc4cc(C(=O)Nc5cc(C(=O)NCCCC(=O)Nc6cc(C(=O)Nc7cc(C(=O)Nc8cc(C(=O)Nc9cc(C(=O)Nc%10ccc%11[nH]c(C(=O)N%12CC(CCl)c%13c%12cc(OC(=O)NCCCN(C)C)c%12ccccc%13%12)cc%11c%10)n(C)c9)n(C)c8)n(C)c7)n(C)c6)n(C)c5)n(C)c4)n3)n2)n(C)c1` (configuration not stated) had a solubility of 230 µM (≈ 418 µg/mL). The half-life in series [2] is 1.1 h.

For `COCCNC(=O)Oc1cc2c(c3ccccc13)C(CCl)CN2C(=O)c1cc2cc(NC(=O)c3cc(NC(=O)c4cc(NC(=O)c5cc(NC(=O)c6cc(NC(=O)CCCNC(=O)c7cc(NC(=O)c8cc(NC(=O)c9nc(NC(=O)CCNC(=O)c%10nc(NC(=O)c%11cc(NC(C)=O)cn%11C)cn%10C)cn9C)cn8C)cn7C)cn6C)cn5C)cn4C)cn3C)ccc2[nH]1` (configuration not stated), the concentration in solution in series [1] (solubility) was 180 µM (≈ 323 µg/mL). The half-life in series [2] is 3.5 h.

As to `CC(=O)Nc1cn(C)c(C(=O)Nc2cn(C)c(C(=O)Nc3cc(C(=O)Nc4cc(C(=O)NCCCC(=O)Nc5cn(C)c(C(=O)Nc6cn(C)c(C(=O)Nc7ccc8[nH]c(C(=O)N9CC(CCl)c%10c9cc(O)c9ccccc%109)cc8c7)n6)n5)n(C)c4)n(C)c3)n2)n1` (configuration not stated), the negative-log IC50 (pIC50) was 6.87 in series [3] and 7.33 in series [4].

In turn, `CC(=O)Nc1cn(C)c(C(=O)Nc2cc(C(=O)Nc3cc(C(=O)NCCC(=O)Nc4cc(C(=O)Nc5cc(C(=O)NCCCC(=O)Nc6cc(C(=O)Nc7cc(C(=O)NCCC(=O)Nc8cn(C)c(C(=O)Nc9ccc%10[nH]c(C(=O)N%11CC(CCl)c%12c%11cc(O)c%11ccccc%12%11)cc%10c9)n8)n(C)c7)n(C)c6)n(C)c5)n(C)c4)n(C)c3)n(C)c2)n1` (configuration not stated) came in with an Activity in series [5] of 54%. Further, the pIC50 is 7.54 in series [3] and 8.10 in series [4]. Besides, in series [6], the result was Active.

Take `CC(=O)Nc1cn(C)c(C(=O)Nc2cc(C(=O)Nc3cc(C(=O)NCCC(=O)Nc4cc(C(=O)NCCCC(=O)Nc5cc(C(=O)NCCC(=O)Nc6cn(C)c(C(=O)Nc7ccc8[nH]c(C(=O)N9CC(CCl)c%10c9cc(O)c9ccccc%109)cc8c7)n6)n(C)c5)n(C)c4)n(C)c3)n(C)c2)n1` (configuration not stated): the figures for the negative-log IC50 (pIC50) in series [3] and in series [4] were 7.29 and 7.55, respectively.

In the case of `CC(=O)Nc1cn(C)c(C(=O)Nc2cn(C)c(C(=O)Nc3cc(C(=O)NCCC(=O)Nc4cn(C)c(C(=O)Nc5cn(C)c(C(=O)NCCCC(=O)Nc6cc(C(=O)Nc7cc(C(=O)NCCC(=O)Nc8cc(C(=O)Nc9ccc%10[nH]c(C(=O)N%11CC(CCl)c%12c%11cc(O)c%11ccccc%12%11)cc%10c9)n(C)c8)n(C)c7)n(C)c6)n5)n4)n(C)c3)n2)n1` (configuration not stated), in [7], the outcome was Active. Also, the Activity in series [8] is 47%; in series [9], 11%. Further, the pIC50 is 6.62 in series [3] and 7.35 in series [4].

Turning to `CC(=O)Nc1cc(C(=O)Nc2cn(C)c(C(=O)NCCC(=O)Nc3cn(C)c(C(=O)Nc4cc(C(=O)Nc5cc(C(=O)NCCCC(=O)Nc6cc(C(=O)Nc7cc(C(=O)Nc8cc(C(=O)Nc9cc(C(=O)Nc%10ccc%11[nH]c(C(=O)N%12CC(CCl)c%13c%12cc(OC(=O)[C@@H](N)CCCCN)c%12ccccc%13%12)cc%11c%10)n(C)c9)n(C)c8)n(C)c7)n(C)c6)n(C)c5)n(C)c4)n3)n2)n(C)c1` (some centres not stated), in series [1], the solubility stood at 1200 µM (≈ 2180 µg/mL). Besides, the half-life in series [2] was < 1 h.

With `CC(=O)Nc1cc(C(=O)Nc2cn(C)c(C(=O)NCCC(=O)Nc3cn(C)c(C(=O)Nc4cc(C(=O)Nc5cc(C(=O)NCCCC(=O)Nc6cc(C(=O)Nc7cc(C(=O)Nc8cc(C(=O)Nc9cc(C(=O)Nc%10ccc%11[nH]c(C(=O)N%12CC(CCl)c%13c%12cc(O)c%12ccccc%13%12)cc%11c%10)n(C)c9)n(C)c8)n(C)c7)n(C)c6)n(C)c5)n(C)c4)n3)n2)n(C)c1` (configuration not stated), in [10], the outcome was Active. Moreover, the negative logarithm of the IC50 (pIC50) was 6.62 in [3] and 7.21 in [4].

A word on the solubility: it is the dissolved amount per volume that the medium holds. For orientation: half-life means how long it takes for the measured level to halve. What is called pIC50 is the negative decadic logarithm of the IC50, by convention in mol/L. Low readings indicate a high IC50, high ones a low IC50.

For the origin of these results see ChEMBL document CHEMBL1833826, “Evaluation of PI polyamide conjugates with eight-base pair recognition and improvement of the aqueous solubility by PEGylation” (Bioorg Med Chem, 2011).
